{
  "source": "patent US20250188090A1",
  "about": "“A METHOD FOR EXTRACTION OF ALKALOID” (priority 2022, published 2025)",
  "assay_type": "physicochemical",
  "conditions": "pH 9",
  "data": [
    {"smiles": "COC1=CC=C2[C@H]3Cc4ccc(O)c5c4[C@@]2(CCN3C)[C@H]1O5", "note": "[oripavine]", "values": [
      {"measurement": "% in the solvent after a 1-stage extraction (corresponding to D)", "result": 93.3, "unit": "%"},
      {"measurement": "maximum D value", "result": 14.5},
      {"measurement": "single stage extraction efficiency for oripavine", "result": 96, "unit": "%"}
    ]}
  ]
}
